# Measurements: patent US10064954B2, “Polymer-cyclodextrin-lipid conjugates” (priority 2015, dated 2018)
# Where a name gives a salt, the structure may show the parent alone.
# Experiment: not given
# Assay type: physicochemical
# Conditions: not given
# Description: 1% (w/v) of propofol was prepared in a saline based solution with different PEG-carbohydrate conjugates. Table 6 listed the minimum concentration of the conjugates required to solublize propofol as a solubility test reference.
row,Molecule,Concentration (% w/v)
1,cholesterypropanediaminelactobionate-mPEG12,3.5 % w/v
2,oleoylpropanediaminelactobionate-mPEG12,3.0 % w/v
3,2-hydroxypropyl-β-cyclodextrin,30 % w/v

# Experiment: Solubility of marketed Drug Products: cyclodextrin to drug ratio
# Conditions: CD = hydroxypropyl-β-cyclodextrin
row,Molecule,CD/D (mol/mol)
1,CC(C)NCC(O)COc1cccc2ccccc12 (stereo not drawn) [Propranolol],10.4 mol/mol
2,CN(Cc1cnc2nc(N)nc(N)c2n1)c1ccc(C(=O)N[C@@H](CCC(=O)O)C(=O)O)cc1 [Methotrexate],18.3 mol/mol
3,CN1C(=O)CN=C(c2ccccc2)c2cc(Cl)ccc21 [Diazepam],18.4 mol/mol
4,CCCCCCCCCCNCCN[C@@]1(C)C[C@H](O[C@H]2[C@H](Oc3c4cc5cc3Oc3ccc(cc3Cl)[C@@H](O)[C@@H](NC(=O)[C@@H](CC(C)C)NC)C(=O)N[C@@H](CC(N)=O)C(=O)N[C@H]5C(=O)N[C@H]3C(=O)N[C@H](C(=O)N[C@H](C(=O)O)c5cc(O)c(CNCP(=O)(O)O)c(O)c5-c5cc3ccc5O)[C@H](O)c3ccc(c(Cl)c3)O4)O[C@H](CO)[C@@H](O)[C@@H]2O)O[C@@H](C)[C@H]1O [Telavancin HCl],12.6 mol/mol
5,CCC(C)n1ncn(-c2ccc(N3CCN(c4ccc(OCC5COC(Cn6cncn6)(c6ccc(Cl)cc6Cl)O5)cc4)CC3)cc2)c1=O (stereo not drawn) [Itraconazole],20.2 mol/mol
6,O=C(CCCN1CCC(O)(c2ccc(Cl)cc2)CC1)c1ccc(F)cc1 [Haloperidol],302.9 mol/mol
7,CNC(=C[N+](=O)[O-])NCCSCc1ccc(CN(C)C)o1 [Ranitidine HCl],14.5 mol/mol

# Same assay, conditions: CD = sulfobutyl ether β-cyclodextrin
row,Molecule,CD/D (mol/mol)
1,C[C@@H](c1ncncc1F)[C@](O)(Cn1cncn1)c1ccc(F)cc1F [Voriconazole],2.5 mol/mol
2,CC[C@@H]([C@H](C)O)n1ncn(-c2ccc(N3CCN(c4ccc(OC[C@@H]5CO[C@@](Cn6cncn6)(c6ccc(F)cc6F)C5)cc4)CC3)cc2)c1=O [Posaconazole],6.9 mol/mol
